Assay results as given in PubChem BioAssay (NCI).
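Interpolation was linear, between the two tested concentrations surrounding the appropriate level; five concentrations were tested over 48 hours in 96-well plates. TGI denotes the concentration required for complete inhibition of growth.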

What was measured:
Assay in all cases: NCI anticancer screen, dose series, 48 h
RXF 393 renal = test system: RXF 393 renal
SNB-19 CNS = test system: SNB-19 CNS
786-0 renal = test system: 786-0 renal
OVCAR-4 ovarian = test system: OVCAR-4 ovarian
UACC-257 melanoma = test system: UACC-257 melanoma
EKVX NSCLC = test system: EKVX NSCLC
SK-MEL-5 melanoma = test system: SK-MEL-5 melanoma
K-562 leukemia = test system: K-562 leukemia
NCI-H23 lung = test system: NCI-H23 lung
NCI-H226 lung = test system: NCI-H226 lung
T-47D breast = test system: T-47D breast
MOLT-4 leukemia = test system: MOLT-4 leukemia
NCI/ADR-RES ovarian = test system: NCI/ADR-RES ovarian
HT29 colon = test system: HT29 colon
CAKI-1 renal = test system: CAKI-1 renal
OVCAR-3 ovarian = test system: OVCAR-3 ovarian

Compound	TGI (RXF 393 renal)	TGI (SNB-19 CNS)	TGI (786-0 renal)	TGI (OVCAR-4 ovarian)	TGI (UACC-257 melanoma)	TGI (EKVX NSCLC)	TGI (SK-MEL-5 melanoma)	TGI (K-562 leukemia)	TGI (NCI-H23 lung)	TGI (NCI-H226 lung)	TGI (T-47D breast)	TGI (MOLT-4 leukemia)	TGI (NCI/ADR-RES ovarian)	TGI (HT29 colon)	TGI (CAKI-1 renal)	TGI (OVCAR-3 ovarian)
Cn1cc(S(=O)(=O)NC(=O)Nc2ccc(Cl)cc2)c(=O)c2ccc(F)cc21	> 100 µM	> 100 µM	> 100 µM	> 100 µM	> 100 µM	> 100 µM	> 100 µM	> 100 µM	> 100 µM	> 100 µM	> 100 µM	> 100 µM	> 100 µM	> 100 µM	> 100 µM	–
CC1(C)COC2=C(C1)C(=O)c1ccccc1C2=O	3.51 µM	3.82 µM	3.29 µM	2.9 µM	2.11 µM	3.59 µM	1.88 µM	1.52 µM	3.46 µM	4.8 µM	2.44 µM	3.91 µM	1.94 µM	5.41 µM	3.9 µM	2.06 µM
Cc1nc2sc(C(=O)c3ccc(Cl)cc3)c(N)c2c(-c2ccccc2Cl)c1C(=O)Nc1ccccc1	31.3 µM	71.2 µM	27.6 µM	41 µM	61.8 µM	59 µM	36.6 µM	> 51.8 µM	38.9 µM	62.1 µM	19 µM	51.5 µM	60 µM	31.3 µM	36.8 µM	33.9 µM
COC1(CC[C@@H](C)COC2OC(CO)C(O)C(O)C2O)O[C@H]2C[C@H]3[C@@H]4CC=C5C[C@@H](OC6OC(CO)C(O)C(OC7OC(CO)C(O)C(O)C7O)C6OC6OC(C)C(O)C(O)C6O)CC[C@]5(C)[C@H]4CC[C@]3(C)[C@H]2[C@@H]1C (stereo not given in full)	19.5 µM	21.2 µM	8.33 µM	28.4 µM	26.3 µM	35.3 µM	27.5 µM	> 62.8 µM	28.2 µM	26.5 µM	25.9 µM	> 31.6 µM	33.6 µM	> 23.1 µM	12 µM	32.2 µM
COc1cc(OC)c2c(c1)OC(c1cccnc1)C(c1ccccc1)C2=O (stereo not given)	> 100 µM	> 100 µM	> 100 µM	> 100 µM	> 100 µM	> 100 µM	> 100 µM	> 100 µM	> 100 µM	> 100 µM	> 100 µM	> 100 µM	> 100 µM	> 100 µM	> 100 µM	> 100 µM
Cc1ccc2c(c1)nc1n2C(N)=Nc2ccccc2S1	> 100 µM	> 100 µM	> 100 µM	> 100 µM	> 100 µM	> 100 µM	> 100 µM	> 100 µM	> 100 µM	> 100 µM	> 100 µM	> 100 µM	> 100 µM	> 100 µM	> 100 µM	> 100 µM
c1ccc2c(c1)cc1n2CCc2c-1[nH]c1ccccc21	> 10 µM	> 10 µM	> 10 µM	> 10 µM	> 10 µM	> 10 µM	> 10 µM	> 10 µM	> 10 µM	> 10 µM	> 10 µM	> 10 µM	> 10 µM	> 10 µM	> 10 µM	> 10 µM
COC(=O)Nc1nc2ccc(S(=O)(=O)N3CCOCC3)cc2[nH]1	> 100 µM	> 100 µM	> 100 µM	> 100 µM	> 100 µM	> 100 µM	> 100 µM	> 100 µM	> 100 µM	> 100 µM	> 100 µM	> 100 µM	> 100 µM	> 100 µM	> 100 µM	> 100 µM
CCOC(=O)/C=C(\C(=O)OCC)n1cc(C)c(=O)n(Cc2cnnn2COCCOC(C)=O)c1=O	13.2 µM	> 61.8 µM	14.9 µM	32 µM	26.3 µM	24.6 µM	> 51.6 µM	19.2 µM	34.2 µM	35 µM	28.9 µM	8.7 µM	43.7 µM	21.2 µM	8.06 µM	26 µM
COc1cc2c(/C=C3/C(=O)N(C)c4ccc(O)cc43)c(Cl)[nH]c2cc1C	23.3 µM	5.35 µM	15 µM	21.6 µM	23.5 µM	23.9 µM	6.35 µM	11.7 µM	3.28 µM	16.2 µM	5.93 µM	0.784 µM	5.59 µM	46.7 µM	13.6 µM	0.597 µM
CC1=C(C)CC2(C=C(C(C)(C)C)C(=O)C(C(C)(C)C)=C2)SC1	38.7 µM	31.5 µM	36 µM	> 100 µM	> 100 µM	36.9 µM	27.4 µM	> 100 µM	57.1 µM	34.4 µM	87.3 µM	> 100 µM	39.4 µM	43 µM	54.9 µM	36.1 µM
CCCCOC(=O)C1CC[C@H]2[C@@H]3CCc4cc(OC(=O)c5cccc6c(=O)c7ccccc7[nH]c56)ccc4[C@H]3CC[C@]12C (stereo not given in full)	17 µM	–	17 µM	14.5 µM	15.3 µM	8.77 µM	12.8 µM	21.4 µM	16.6 µM	20.6 µM	14.1 µM	21.7 µM	24.3 µM	18.6 µM	13.7 µM	15.3 µM
CC(C)=CC(=O)c1[nH]c2ccccc2c1CC(=O)NCCc1cncn1C	83.4 µM	> 100 µM	> 100 µM	> 100 µM	> 100 µM	83.4 µM	> 100 µM	> 100 µM	> 100 µM	> 100 µM	> 100 µM	> 100 µM	> 100 µM	> 100 µM	> 100 µM	> 100 µM
C/C(=C/CC[C@]1(CO)CC[C@]2(C)[C@H](CC[C@@H]3[C@@]4(C)CC[C@H](OC5OC(CO)C(O)C(O)C5OC5OC(CO)C(O)C(O)C5O)C(C)(C)[C@@H]4CC[C@]32C)[C@H]1O)CO (stereo not given in full)	> 100 µM	> 100 µM	> 100 µM	> 100 µM	> 100 µM	> 100 µM	> 100 µM	> 100 µM	> 100 µM	> 100 µM	> 100 µM	> 100 µM	> 100 µM	> 100 µM	> 100 µM	> 100 µM
C[C@]12CC(c3ccccc3O1)C(C(=O)Nc1nc(C34CC5CC(CC(C5)C3)C4)cs1)C(=O)N2 (stereo not given in full)	> 100 µM	> 100 µM	> 100 µM	> 100 µM	> 100 µM	> 100 µM	> 100 µM	> 100 µM	> 100 µM	> 100 µM	> 100 µM	> 100 µM	> 100 µM	> 100 µM	> 100 µM	> 100 µM
Cc1cc2nc3c(C#N)c4c(c(-c5ccc(Cl)cc5)n3c2cc1C)CCC4	> 100 µM	37.8 µM	35 µM	97.1 µM	41.4 µM	54.4 µM	40.3 µM	53.6 µM	35.4 µM	41 µM	52.1 µM	57.5 µM	> 100 µM	40.5 µM	42.9 µM	40.7 µM
O=c1[nH]c(NCc2ccc(Cl)cc2)nc2nc[nH]c12	> 100 µM	> 100 µM	> 100 µM	> 100 µM	> 100 µM	> 100 µM	> 100 µM	> 100 µM	> 100 µM	> 100 µM	> 100 µM	> 100 µM	> 100 µM	> 100 µM	> 100 µM	> 100 µM
Cn1c(=O)c2c(nc3sc4ccccc4c(=O)n32)n(C)c1=O	> 100 µM	> 100 µM	> 100 µM	> 100 µM	> 100 µM	> 100 µM	> 100 µM	> 100 µM	> 100 µM	> 100 µM	> 100 µM	> 100 µM	> 100 µM	> 100 µM	> 100 µM	> 100 µM
COc1ccccc1C1(c2c(OC)c(=O)c2=O)SCCCS1	> 100 µM	> 100 µM	> 100 µM	> 100 µM	> 100 µM	> 100 µM	> 100 µM	> 100 µM	> 100 µM	> 100 µM	> 100 µM	> 100 µM	> 100 µM	> 100 µM	> 100 µM	> 100 µM
Br[C@@H]1[C@H]2c3nc4ccccc4nc3[C@@H]1C[C@H]2Br	94.6 µM	> 100 µM	> 100 µM	> 100 µM	> 100 µM	> 100 µM	69.5 µM	> 100 µM	> 100 µM	86.2 µM	> 100 µM	> 100 µM	> 100 µM	> 100 µM	> 100 µM	> 100 µM
CCN1CCC(CNC(=O)c2ccc(N)cc2)N1CC (stereo not given)	> 100 µM	> 100 µM	> 100 µM	> 100 µM	> 100 µM	> 100 µM	> 100 µM	> 100 µM	> 100 µM	> 100 µM	> 100 µM	> 100 µM	> 100 µM	> 100 µM	> 100 µM	> 100 µM
CC(=O)OCC1OC(n2c(Br)nc3c2c(=O)n(C)c(=O)n3C)C(OC(C)=O)C1OC(C)=O (stereo not given)	> 100 µM	> 100 µM	> 100 µM	83.6 µM	> 100 µM	> 100 µM	> 100 µM	> 100 µM	> 100 µM	> 100 µM	> 100 µM	> 100 µM	> 100 µM	> 100 µM	> 100 µM	> 100 µM
C/C(=N\O)c1cccc[n+]1Cc1ccccc1	> 100 µM	> 100 µM	> 100 µM	> 100 µM	> 100 µM	> 100 µM	> 100 µM	> 100 µM	> 100 µM	> 100 µM	> 100 µM	> 100 µM	> 100 µM	> 100 µM	> 100 µM	> 100 µM
Cc1cccc(CC(Cc2ccc(C)cc2C(=O)O)C(=O)O)c1 (stereo not given)	> 100 µM	> 100 µM	> 100 µM	> 100 µM	> 100 µM	> 100 µM	> 100 µM	> 100 µM	> 100 µM	> 100 µM	> 100 µM	> 100 µM	> 100 µM	> 100 µM	> 100 µM	> 100 µM
O=C1C(c2c(O)[nH]c3ccc(Br)cc23)=Nc2ccc(Br)cc21	40.7 µM	92.4 µM	46.9 µM	> 100 µM	> 100 µM	> 100 µM	> 100 µM	> 100 µM	88 µM	> 100 µM	> 100 µM	> 100 µM	> 100 µM	> 100 µM	> 100 µM	> 100 µM
CC1OC(OC2C(O[C@H]3CC[C@@]4(C)C(=CC[C@H]5[C@@H]6C[C@@H]7O[C@]8(CC[C@@H](C)CO8)[C@@H](C)[C@@H]7[C@@]6(C)CC[C@@H]54)C3)OC(CO)C(O)C2O)C(O)C(O)C1O (stereo not given in full)	3.04 µM	2.38 µM	2.37 µM	2.47 µM	4.9 µM	6.47 µM	7.52 µM	> 25 µM	5.61 µM	8.03 µM	8.66 µM	> 25 µM	4.64 µM	2.37 µM	3.54 µM	6.65 µM
CC1=CP(=O)(c2c(C(C)C)cc(C(C)C)cc2C(C)C)CCC1Cl (stereo not given)	31.5 µM	30.3 µM	36.7 µM	48.5 µM	24.9 µM	32.6 µM	31.7 µM	35.6 µM	39.4 µM	35.1 µM	31.9 µM	49.6 µM	40.2 µM	41.8 µM	39.4 µM	23.4 µM
COC(=O)C1(SC)C2CCC3C2CCC31 (stereo not given)	> 100 µM	> 100 µM	> 100 µM	> 100 µM	> 100 µM	> 100 µM	> 100 µM	> 100 µM	> 100 µM	> 100 µM	> 100 µM	> 100 µM	> 100 µM	–	> 100 µM	> 100 µM
